Measured values taken from ChEMBL document CHEMBL5512619, “Anticancer mechanism of coumarin-based derivatives” (Eur J Med Chem, 2024).

Key:
[1] = test system: SK-OV-3; experiment: Antiproliferative activity against human SK-OV-3 cells measured after 21 hrs by MTT assay; format: functional, cell-based; conditions: SK-OV-3, 21 h
[2] = test system: CCRF-CEM; experiment: Antiproliferative activity against human CCRF-CEM cells assessed as reduction in cell viability measured after 24 hrs by MTT assay relative to control; format: functional; conditions: pooled result: one value given for 6 cell lines, strains, targets or settings
[3] = molecular target: Albumin (Homo sapiens, UniProt P02768); experiment: Reversible binding affinity to human serum albumin
Sequence of Albumin (P02768 whole entry): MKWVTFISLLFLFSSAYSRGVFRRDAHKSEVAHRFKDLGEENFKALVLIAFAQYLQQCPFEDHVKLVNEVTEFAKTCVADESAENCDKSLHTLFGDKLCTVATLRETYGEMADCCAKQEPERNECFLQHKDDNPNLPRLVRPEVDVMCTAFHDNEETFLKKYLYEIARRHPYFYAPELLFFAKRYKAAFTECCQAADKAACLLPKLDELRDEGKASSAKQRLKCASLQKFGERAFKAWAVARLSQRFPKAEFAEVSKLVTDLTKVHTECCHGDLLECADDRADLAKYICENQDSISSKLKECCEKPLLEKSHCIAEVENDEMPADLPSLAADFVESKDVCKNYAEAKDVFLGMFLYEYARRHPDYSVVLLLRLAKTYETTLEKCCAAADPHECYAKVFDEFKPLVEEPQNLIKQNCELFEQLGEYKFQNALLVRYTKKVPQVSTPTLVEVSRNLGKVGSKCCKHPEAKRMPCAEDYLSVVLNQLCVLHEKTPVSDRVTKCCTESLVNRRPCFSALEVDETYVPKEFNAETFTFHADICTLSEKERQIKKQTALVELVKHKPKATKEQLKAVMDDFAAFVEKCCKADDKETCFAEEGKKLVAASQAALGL

[4] = molecular target: Carbonic anhydrase 1 (Homo sapiens, UniProt P00915); experiment: Binding affinity to human CA1 assessed as inhibition constant incubated for 6 hrs by phenol red dye based stopped flow CO2 hydration assay
Sequence of Carbonic anhydrase 1 (P00915 whole entry): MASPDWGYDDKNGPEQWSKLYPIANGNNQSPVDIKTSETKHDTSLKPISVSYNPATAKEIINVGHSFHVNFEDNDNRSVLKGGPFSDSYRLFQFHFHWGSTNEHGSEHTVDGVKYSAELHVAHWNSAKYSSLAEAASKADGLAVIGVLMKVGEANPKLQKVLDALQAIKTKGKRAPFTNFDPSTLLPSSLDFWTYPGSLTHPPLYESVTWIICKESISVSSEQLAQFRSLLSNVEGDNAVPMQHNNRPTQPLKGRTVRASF

[5] = molecular target: Carbonic anhydrase 2 (Homo sapiens, UniProt P00918); experiment: Binding affinity to human CA2 assessed as inhibition constant incubated for 6 hrs by phenol red dye based stopped flow CO2 hydration assay
[6] = molecular target: Steryl-sulfatase (Homo sapiens, UniProt P08842); experiment: Inhibition of STS in human placental microsome; format: microsomes
[7] = molecular target: Vascular endothelial growth factor receptor 2 (Homo sapiens, UniProt P35968); experiment: Inhibition of human VEGFR2
Sequence of Vascular endothelial growth factor receptor 2 (P35968 whole entry): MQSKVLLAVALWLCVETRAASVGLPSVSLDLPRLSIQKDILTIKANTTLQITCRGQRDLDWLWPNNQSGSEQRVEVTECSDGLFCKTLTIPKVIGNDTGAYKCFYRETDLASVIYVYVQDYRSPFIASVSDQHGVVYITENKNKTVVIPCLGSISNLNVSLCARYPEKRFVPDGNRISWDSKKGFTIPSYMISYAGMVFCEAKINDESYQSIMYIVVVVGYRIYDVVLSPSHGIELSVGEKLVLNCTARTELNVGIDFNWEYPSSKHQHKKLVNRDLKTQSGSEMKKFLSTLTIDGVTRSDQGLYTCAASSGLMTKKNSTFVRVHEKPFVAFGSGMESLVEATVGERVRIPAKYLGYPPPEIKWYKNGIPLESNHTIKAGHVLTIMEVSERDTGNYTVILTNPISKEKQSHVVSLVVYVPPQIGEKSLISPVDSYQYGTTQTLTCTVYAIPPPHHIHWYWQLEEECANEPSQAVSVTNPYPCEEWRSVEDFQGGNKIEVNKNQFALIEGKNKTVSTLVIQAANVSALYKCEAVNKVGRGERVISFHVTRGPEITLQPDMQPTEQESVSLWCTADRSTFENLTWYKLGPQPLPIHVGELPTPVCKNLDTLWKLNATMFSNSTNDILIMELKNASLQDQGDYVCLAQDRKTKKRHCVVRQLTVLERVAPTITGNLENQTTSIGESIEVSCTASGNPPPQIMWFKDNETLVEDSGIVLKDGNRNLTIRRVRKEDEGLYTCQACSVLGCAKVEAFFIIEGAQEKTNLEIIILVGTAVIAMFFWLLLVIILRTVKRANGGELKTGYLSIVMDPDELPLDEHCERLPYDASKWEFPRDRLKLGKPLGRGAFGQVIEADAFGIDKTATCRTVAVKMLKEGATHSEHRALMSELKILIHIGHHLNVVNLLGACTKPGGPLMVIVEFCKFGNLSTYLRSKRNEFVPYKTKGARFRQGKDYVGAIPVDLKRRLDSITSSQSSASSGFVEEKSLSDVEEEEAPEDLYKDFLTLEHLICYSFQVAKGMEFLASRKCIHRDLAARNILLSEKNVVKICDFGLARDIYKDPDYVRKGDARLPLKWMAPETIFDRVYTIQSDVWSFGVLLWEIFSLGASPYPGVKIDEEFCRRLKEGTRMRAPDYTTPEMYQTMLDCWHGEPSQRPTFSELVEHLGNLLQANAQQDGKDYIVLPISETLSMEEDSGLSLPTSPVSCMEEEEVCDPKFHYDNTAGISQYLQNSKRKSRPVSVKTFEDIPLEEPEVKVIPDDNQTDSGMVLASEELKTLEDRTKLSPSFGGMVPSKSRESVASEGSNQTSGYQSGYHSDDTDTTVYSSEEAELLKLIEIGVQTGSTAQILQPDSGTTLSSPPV

[8] = test system: A549; experiment: Antiproliferative activity against human A549 cells measured after 24 hrs by MTT assay; format: functional, cell-based; conditions: A549, 24 h
[9] = test system: HepG2; experiment: Antiproliferative activity against human HepG2 cells measured after 24 hrs by MTT assay; format: functional, cell-based; conditions: HepG2, 24 h
[10] = test system: HCT-116; experiment: Antiproliferative activity against human HCT-116 cells measured after 24 hrs by MTT assay; format: functional, cell-based; conditions: HCT-116, 24 h
[11] = test system: HeLa; experiment: Antiproliferative activity against human HeLa cells incubated for 24 hrs by MTT assay; format: functional, cell-based
[12] = molecular target: Epidermal growth factor receptor (Homo sapiens, UniProt P00533); experiment: Inhibition of EGFR (unknown origin)
Sequence of Epidermal growth factor receptor (P00533 whole entry): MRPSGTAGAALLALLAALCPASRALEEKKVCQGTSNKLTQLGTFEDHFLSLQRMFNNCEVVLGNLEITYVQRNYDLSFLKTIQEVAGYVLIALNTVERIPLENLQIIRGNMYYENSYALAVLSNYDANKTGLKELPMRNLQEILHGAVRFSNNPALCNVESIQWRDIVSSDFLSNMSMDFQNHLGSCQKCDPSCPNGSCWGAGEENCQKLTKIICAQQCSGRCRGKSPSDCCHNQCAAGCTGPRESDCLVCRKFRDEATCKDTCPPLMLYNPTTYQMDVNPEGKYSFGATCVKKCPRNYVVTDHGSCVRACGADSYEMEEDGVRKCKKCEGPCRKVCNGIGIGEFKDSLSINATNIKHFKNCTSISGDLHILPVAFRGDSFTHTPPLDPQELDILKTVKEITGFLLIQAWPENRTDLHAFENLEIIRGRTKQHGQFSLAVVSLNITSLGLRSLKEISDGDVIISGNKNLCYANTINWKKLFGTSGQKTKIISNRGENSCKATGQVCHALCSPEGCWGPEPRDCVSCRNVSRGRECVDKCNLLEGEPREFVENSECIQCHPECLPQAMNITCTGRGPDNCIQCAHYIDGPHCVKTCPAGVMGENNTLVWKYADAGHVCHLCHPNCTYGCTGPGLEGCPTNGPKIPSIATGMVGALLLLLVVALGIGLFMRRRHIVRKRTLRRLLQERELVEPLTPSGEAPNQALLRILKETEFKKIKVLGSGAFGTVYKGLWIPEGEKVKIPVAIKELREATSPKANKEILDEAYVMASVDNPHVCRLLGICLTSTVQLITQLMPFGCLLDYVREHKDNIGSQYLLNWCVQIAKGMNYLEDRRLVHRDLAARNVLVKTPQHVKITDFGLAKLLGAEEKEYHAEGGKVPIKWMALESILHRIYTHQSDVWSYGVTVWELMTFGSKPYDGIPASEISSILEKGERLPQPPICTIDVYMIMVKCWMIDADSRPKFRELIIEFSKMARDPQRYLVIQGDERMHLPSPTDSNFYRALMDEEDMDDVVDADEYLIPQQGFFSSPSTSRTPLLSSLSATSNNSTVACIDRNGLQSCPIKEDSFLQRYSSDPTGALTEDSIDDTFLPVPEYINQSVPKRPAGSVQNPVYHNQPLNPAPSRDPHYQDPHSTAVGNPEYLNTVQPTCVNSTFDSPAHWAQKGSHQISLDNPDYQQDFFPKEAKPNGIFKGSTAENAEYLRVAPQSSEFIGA

[13] = molecular target: Receptor tyrosine-protein kinase erbB-2 (Homo sapiens, UniProt P04626); experiment: Inhibition of HER2 (unknown origin)
Sequence of Receptor tyrosine-protein kinase erbB-2 (P04626 whole entry): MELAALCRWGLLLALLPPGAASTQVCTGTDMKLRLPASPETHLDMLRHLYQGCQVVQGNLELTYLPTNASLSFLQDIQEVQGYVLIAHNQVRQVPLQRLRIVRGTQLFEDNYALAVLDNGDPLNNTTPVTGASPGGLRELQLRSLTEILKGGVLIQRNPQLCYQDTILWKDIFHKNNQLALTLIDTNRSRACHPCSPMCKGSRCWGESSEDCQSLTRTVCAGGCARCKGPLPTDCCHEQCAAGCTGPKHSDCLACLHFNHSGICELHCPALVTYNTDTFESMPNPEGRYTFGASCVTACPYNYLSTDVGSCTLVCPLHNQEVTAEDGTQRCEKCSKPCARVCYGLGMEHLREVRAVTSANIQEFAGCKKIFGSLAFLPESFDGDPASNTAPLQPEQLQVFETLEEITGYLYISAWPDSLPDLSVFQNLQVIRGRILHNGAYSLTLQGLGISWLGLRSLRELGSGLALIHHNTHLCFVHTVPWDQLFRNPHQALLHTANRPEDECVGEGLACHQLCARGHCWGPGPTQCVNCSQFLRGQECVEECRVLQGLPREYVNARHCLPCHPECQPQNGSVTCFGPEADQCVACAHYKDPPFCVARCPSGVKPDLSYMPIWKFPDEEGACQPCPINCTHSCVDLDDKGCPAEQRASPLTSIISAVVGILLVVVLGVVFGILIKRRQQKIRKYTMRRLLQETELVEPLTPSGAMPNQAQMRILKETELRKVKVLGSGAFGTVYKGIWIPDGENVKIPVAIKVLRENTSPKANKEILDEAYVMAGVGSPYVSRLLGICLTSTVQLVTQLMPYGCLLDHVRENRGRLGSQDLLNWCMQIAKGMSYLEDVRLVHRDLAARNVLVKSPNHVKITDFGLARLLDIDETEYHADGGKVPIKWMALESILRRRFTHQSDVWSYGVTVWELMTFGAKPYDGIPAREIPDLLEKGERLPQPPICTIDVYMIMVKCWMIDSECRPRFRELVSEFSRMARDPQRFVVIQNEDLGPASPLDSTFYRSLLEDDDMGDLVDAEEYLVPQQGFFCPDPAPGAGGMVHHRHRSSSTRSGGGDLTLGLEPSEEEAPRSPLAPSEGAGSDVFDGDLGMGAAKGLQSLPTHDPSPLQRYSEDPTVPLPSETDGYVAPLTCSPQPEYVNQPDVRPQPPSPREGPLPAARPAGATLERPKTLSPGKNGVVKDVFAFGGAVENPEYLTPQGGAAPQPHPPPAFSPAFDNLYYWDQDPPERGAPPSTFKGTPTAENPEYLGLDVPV

[14] = test system: HeLa; experiment: Cytotoxicity against human HeLa cells incubated for 72 hrs by MTT assay; format: functional, cell-based
[15] = test system: HepG2; experiment: Cytotoxicity against human HepG2 cells incubated for 72 hrs by MTT assay; format: functional, cell-based; conditions: HepG2, 72 h
[16] = Cytotoxicity against human Lu1 cells incubated for 72 hrs by MTT assay; format: functional, cell-based; conditions: Lu1, 72 h
[17] = test system: HepG2; experiment: Antiproliferative activity against human HepG2 cells measured after 72 hrs by SRB method; format: functional, cell-based; conditions: HepG2, 72 h
[18] = test system: MCF7; experiment: Antiproliferative activity against human MCF7 cells measured after 72 hrs by SRB method; format: functional, cell-based; conditions: MCF7, 72 h
[19] = test system: HeLa; experiment: Antiproliferative activity against human HeLa cells measured after 72 hrs by SRB method; format: functional, cell-based
[20] = test system: HCT-116; experiment: cells; conditions: Homo sapiens, HCT-116, 72 h
Description: Antiproliferative activity against human HCT-116 cells measured after 72 hrs by SRB method

Compound O=c1ccc2ccc(O[C@@H]3O[C@H](CO[C@@H]4OC[C@](O)(CO)[C@H]4O)[C@@H](O)[C@H](O)[C@H]3O)cc2o1 has an IC50 [1] greater than 100000 nM.
Work on O=C(COc1ccccc1)Nc1ccc2oc(=O)ccc2c1 yielded an Activity [2] of 61%.
Cc1cc(=O)oc2cc(NCc3ccccc3O)ccc12 showed a Kd [3] of 30 nM.
COc1cc2oc(=O)ccc2cc1O[C@@H]1O[C@H](CO)[C@@H](O)[C@H](O)[C@H]1O gave an IC50 [1] greater than 100000 nM.
In the case of Cc1cc(=O)oc2cc(OCc3cn(CCCCCCCCCCOc4ccc5ccc(=O)oc5c4)nn3)ccc12, the Ki [4] is reported as greater than 10000 nM and the Ki [5] is reported as greater than 10000 nM.
For Cc1c(Cc2ccccc2)c(=O)oc2cc(OS(N)(=O)=O)ccc12, the IC50 [6] was 32 nM.
Work on CCCCCCc1c(C)c2ccc(OS(N)(=O)=O)cc2oc1=O yielded an IC50 [6] of 8 nM.
CN(C)c1ccc(C2CC(c3c(O)c4ccccc4oc3=O)=NN2c2nc(-c3ccccc3)c(/N=N/c3ccc(Cl)cc3)s2)cc1 (centres undefined) showed an IC50 [7] of 34 nM.
In the case of Cc1cc(=O)oc2cc(OCc3cn(CCCCCCCCCCCCOc4ccc5ccc(=O)oc5c4)nn3)ccc12, the Ki [4] is reported as greater than 10000 nM.
With CC1SC(N2N=C(c3cc4ccccc4oc3=O)CC2c2ccc(N(C)C)cc2)=NC1=O (centres undefined) the IC50 [7] was 34 nM.
For COc1ccc(-c2cc(-c3cc4ccccc4oc3=O)nc3nc(C)[nH]c(=O)c23)cc1, the IC50 [8] was 1100 nM, the IC50 [9] was 1100 nM and the IC50 [10] was 1100 nM.
Work on COc1ccc(-c2cc(-c3cc4ccccc4oc3=O)nc(N)c2C(N)=O)cc1 yielded an IC50 [8] of 1100 nM, an IC50 [9] of 1100 nM and an IC50 [10] of 1100 nM.
COc1ccc(-c2cc(-c3cc4ccccc4oc3=O)nc(NC(C)=O)c2C#N)cc1 showed an IC50 [8] of 1100 nM, an IC50 [9] of 1100 nM and an IC50 [10] of 1100 nM.
Cc1nc(N2N=C(c3cc4ccccc4oc3=O)CC2c2ccc(N(C)C)cc2)sc1/N=N/c1ccc(Cl)cc1 (centres undefined) gave an IC50 [7] of 34 nM.
CC(C)=CC[C@@H](OCCc1ccc(C(=O)/N=C/c2c(Cl)c3ccccc3oc2=O)cc1)C1=CC(=O)c2c(O)ccc(O)c2C1=O gave an IC50 [11] of 3250 nM.
Work on CC(C)(O[C@@H]1O[C@H](CO)[C@@H](O)[C@H](O)[C@H]1O)[C@@H]1Cc2cc3ccc(=O)oc3cc2O1 yielded an IC50 [1] greater than 100000 nM.
Compound Cc1cc(=O)oc2cc(NCc3cc(I)cc(I)c3O)ccc12 has a Kd [3] of 30 nM.
In the case of CC(=O)OC[C@H]1O[C@@H](N(C(C)=O)C2=NN(C(C)=O)C(c3cc(=O)oc4ccc(OCCC(C)C)cc34)S2)[C@H](OC(C)=O)[C@@H](OC(C)=O)[C@@H]1OC(C)=O (some centres undefined), the IC50 [12] is reported as 220 nM, the IC50 [13] is reported as 130 nM and the IC50 [14] is reported as 1180 nM. The IC50 [15] was 1180 nM and the IC50 [16] was 1180 nM.
For Cc1c2c3c(ccc(C)c3oc1=O)[C@](C)(O)CO2, the IC50 [17] was 3950 nM, the IC50 [18] was 3950 nM and the IC50 [19] was 3950 nM. For the same compound, the IC50 [20] was 3950 nM.
CC(=O)OC[C@H]1O[C@@H](N(C(C)=O)C2=NN(C(C)=O)C(c3cc(=O)oc4cc(OCC(C)C)ccc34)S2)[C@H](OC(C)=O)[C@@H](OC(C)=O)[C@@H]1OC(C)=O (some centres undefined) showed an IC50 [12] of 220 nM, an IC50 [13] of 130 nM and an IC50 [14] of 1180 nM. For the same compound, the IC50 [15] was 1180 nM and the IC50 [16] was 1180 nM.
With Cc1cc(=O)oc2cc(NCc3cc(Br)cc(Br)c3O)ccc12 the Kd [3] was 30 nM.
